Reference: patent US20090311217A1, “3-SUBSTITUTED-1H-INDOLE COMPOUNDS, THEIR USE AS MTOR KINASE AND PI3 KINASE INHIBITORS, AND THEIR SYNTHESES” (priority 2008, published 2009)
Read-outs that look alike come from different tables or passages of the source.

Columns and labels:
Format in all cases: biochemical
[1] = target: PI3K-alpha (Homo sapiens, UniProt P42336); experiment: PI3K-alpha fluorescence polarization assay
[2] = target: PI3K-delta (Homo sapiens, UniProt O00329); experiment: PI3K-delta fluorescence polarization assay; conditions: read-out: PI3Kδ Avg. IC50
[3] = target: T1, human TOR (Homo sapiens, UniProt P42345); experiment: mTOR enzyme assay (DELFIA, His6-S6K substrate); conditions: read-out: mTOR Kinase Avg. IC50
T1 construct: FLAG

[4] = target: PI3K-beta (Homo sapiens, UniProt P42338); experiment: PI3K-beta fluorescence polarization assay; conditions: read-out: PI3Kβ Avg. IC50
Method: PI3K-Alpha, PI3K-Beta, PI3K-Gamma, and PI3K-delta Fluorescence Polarization Assay Protocols
PI3-Kinase reactions were performed in 5 mM HEPES, pH 7, 2.5 mM MgCl2, and 25 μM ATP, with diC8-PI(4,5)P2 (Echelon, Salt Lake City Utah) as substrate. Nunc 384-well black polypropylene fluorescent plates were used for PI3K assays. Reactions were quenched by the addition of EDTA to a final concentration of 10 mM. Final reaction volumes were 10 μl. For evaluation of PI3K inhibitors, 5 ng of enzyme (PI3K-alpha, beta, gamma, or delta) and 2.5 μM of substrate was used per […] reaction volume, and inhibitor concentrations ranged from 100 μM to 20 μM; the final level of DMSO in reactions never exceeded 2%. Reactions were allowed to proceed for one hour at 25° C. After 1 hour, GST-tagged GRP1 (general receptor for phosphoinositides) PH domain fusion protein was added to a final concentration of 100 nM, and BODIPY-TMRI(1,3,4,5)P4 (Echelon) was also added to a final concentration of 5 nM. Final sample volumes were 25 μl with a final DMSO concentration of 0.8%. Assay Plates were read on Perkin-Elmer Envision plate readers with appropriate filters for Tamra [BODIPY-TMRI(1,3,4,5)P4]. Data obtained were used to calculate enzymatic activity and enzyme inhibition by inhibitor compounds.

[5] = target: PI3K-gamma (Homo sapiens, UniProt P48736); experiment: PI3K-gamma fluorescence polarization assay
Procedure, shortened: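 Each isoform (5 ng) phosphorylated 2.5 μM diC8-PI(4,5)P2 at 25 μM ATP for one hour at 25° C in the presence of inhibitor. Reactions were then stopped with EDTA, and product was detected by fluorescence polarization using a GST-GRP1 PH domain and a BODIPY-TMR-labelled IP4 tracer.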

Chain of PI3K-delta (O00329 whole entry, species assumed): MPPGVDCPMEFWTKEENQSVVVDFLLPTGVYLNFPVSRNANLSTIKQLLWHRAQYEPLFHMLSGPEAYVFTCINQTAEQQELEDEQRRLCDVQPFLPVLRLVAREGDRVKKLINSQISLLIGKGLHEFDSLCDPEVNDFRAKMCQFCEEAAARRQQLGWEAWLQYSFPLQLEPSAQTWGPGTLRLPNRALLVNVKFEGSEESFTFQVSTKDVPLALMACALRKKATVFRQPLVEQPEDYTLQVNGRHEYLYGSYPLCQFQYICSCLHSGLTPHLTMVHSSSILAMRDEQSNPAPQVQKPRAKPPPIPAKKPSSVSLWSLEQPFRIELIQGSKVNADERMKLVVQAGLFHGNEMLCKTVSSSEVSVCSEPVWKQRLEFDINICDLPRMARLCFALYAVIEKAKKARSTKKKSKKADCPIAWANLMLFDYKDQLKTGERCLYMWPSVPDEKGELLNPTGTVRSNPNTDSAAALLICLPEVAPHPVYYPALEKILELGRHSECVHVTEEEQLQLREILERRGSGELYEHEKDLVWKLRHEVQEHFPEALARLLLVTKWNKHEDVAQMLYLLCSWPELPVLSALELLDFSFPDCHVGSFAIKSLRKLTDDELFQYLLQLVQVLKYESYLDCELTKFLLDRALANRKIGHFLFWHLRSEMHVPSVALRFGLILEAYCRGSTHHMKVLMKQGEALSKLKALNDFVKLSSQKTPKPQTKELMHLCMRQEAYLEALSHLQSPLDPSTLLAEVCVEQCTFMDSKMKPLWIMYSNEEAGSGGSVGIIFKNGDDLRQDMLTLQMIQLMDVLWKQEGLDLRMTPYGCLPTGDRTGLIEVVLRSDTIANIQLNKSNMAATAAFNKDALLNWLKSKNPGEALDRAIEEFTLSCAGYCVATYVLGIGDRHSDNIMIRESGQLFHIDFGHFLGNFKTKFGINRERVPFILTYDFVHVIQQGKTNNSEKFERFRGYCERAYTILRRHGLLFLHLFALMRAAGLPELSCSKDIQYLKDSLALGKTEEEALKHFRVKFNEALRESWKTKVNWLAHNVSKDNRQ
Chain of PI3K-delta (P27986 whole entry partner, species assumed): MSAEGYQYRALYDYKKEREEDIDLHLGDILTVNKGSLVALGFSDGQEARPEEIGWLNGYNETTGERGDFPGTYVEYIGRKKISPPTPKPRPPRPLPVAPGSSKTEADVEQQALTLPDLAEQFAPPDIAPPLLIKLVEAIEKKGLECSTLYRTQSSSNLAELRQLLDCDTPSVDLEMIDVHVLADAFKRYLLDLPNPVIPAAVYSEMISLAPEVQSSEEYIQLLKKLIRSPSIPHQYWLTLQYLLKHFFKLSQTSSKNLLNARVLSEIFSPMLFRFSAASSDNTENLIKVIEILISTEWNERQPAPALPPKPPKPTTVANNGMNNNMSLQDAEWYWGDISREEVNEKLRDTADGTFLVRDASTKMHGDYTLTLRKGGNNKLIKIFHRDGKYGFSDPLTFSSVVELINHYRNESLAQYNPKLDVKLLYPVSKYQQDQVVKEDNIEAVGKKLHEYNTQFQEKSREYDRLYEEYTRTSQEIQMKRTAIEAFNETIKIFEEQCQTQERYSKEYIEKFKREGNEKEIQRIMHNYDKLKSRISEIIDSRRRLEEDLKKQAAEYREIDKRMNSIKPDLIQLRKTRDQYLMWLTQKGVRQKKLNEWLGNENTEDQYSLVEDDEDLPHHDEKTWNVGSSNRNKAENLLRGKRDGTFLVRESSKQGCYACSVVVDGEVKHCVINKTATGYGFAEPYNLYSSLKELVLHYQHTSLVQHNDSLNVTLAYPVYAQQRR
Chain of PI3K-beta (P42338 whole entry, species assumed): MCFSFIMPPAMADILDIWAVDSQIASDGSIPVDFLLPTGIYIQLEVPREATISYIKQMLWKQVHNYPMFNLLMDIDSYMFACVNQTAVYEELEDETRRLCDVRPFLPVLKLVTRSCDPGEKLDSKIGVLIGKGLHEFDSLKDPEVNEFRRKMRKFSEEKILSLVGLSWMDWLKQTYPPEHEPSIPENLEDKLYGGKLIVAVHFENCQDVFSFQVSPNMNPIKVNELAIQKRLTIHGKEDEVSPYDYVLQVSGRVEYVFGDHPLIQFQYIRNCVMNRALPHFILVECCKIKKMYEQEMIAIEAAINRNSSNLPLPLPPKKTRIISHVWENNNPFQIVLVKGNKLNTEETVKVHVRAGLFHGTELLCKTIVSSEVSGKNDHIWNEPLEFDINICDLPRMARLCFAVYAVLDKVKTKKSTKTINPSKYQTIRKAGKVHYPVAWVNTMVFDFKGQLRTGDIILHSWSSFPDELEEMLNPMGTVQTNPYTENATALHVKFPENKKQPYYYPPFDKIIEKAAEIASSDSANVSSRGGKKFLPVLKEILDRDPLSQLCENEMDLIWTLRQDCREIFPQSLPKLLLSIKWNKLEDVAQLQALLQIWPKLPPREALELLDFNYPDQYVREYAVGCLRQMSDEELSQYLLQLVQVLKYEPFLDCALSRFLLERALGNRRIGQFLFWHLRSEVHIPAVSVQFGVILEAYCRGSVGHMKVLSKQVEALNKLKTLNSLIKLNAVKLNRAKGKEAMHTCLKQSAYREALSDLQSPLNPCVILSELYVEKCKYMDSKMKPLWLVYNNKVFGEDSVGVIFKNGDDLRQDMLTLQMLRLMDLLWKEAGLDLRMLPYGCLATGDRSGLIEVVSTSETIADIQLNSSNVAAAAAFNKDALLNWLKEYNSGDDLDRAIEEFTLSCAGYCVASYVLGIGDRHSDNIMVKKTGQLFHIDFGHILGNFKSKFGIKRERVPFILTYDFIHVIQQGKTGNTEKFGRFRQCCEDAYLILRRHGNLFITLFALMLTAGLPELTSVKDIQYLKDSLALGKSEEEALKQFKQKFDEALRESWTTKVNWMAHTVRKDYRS
Chain of PI3K-beta (P27986 whole entry partner, species assumed): as the sequence (P27986 whole entry partner, species assumed) above
Chain of PI3K-gamma (P48736 whole entry, species assumed, the tested form may be a part, canonical isoform): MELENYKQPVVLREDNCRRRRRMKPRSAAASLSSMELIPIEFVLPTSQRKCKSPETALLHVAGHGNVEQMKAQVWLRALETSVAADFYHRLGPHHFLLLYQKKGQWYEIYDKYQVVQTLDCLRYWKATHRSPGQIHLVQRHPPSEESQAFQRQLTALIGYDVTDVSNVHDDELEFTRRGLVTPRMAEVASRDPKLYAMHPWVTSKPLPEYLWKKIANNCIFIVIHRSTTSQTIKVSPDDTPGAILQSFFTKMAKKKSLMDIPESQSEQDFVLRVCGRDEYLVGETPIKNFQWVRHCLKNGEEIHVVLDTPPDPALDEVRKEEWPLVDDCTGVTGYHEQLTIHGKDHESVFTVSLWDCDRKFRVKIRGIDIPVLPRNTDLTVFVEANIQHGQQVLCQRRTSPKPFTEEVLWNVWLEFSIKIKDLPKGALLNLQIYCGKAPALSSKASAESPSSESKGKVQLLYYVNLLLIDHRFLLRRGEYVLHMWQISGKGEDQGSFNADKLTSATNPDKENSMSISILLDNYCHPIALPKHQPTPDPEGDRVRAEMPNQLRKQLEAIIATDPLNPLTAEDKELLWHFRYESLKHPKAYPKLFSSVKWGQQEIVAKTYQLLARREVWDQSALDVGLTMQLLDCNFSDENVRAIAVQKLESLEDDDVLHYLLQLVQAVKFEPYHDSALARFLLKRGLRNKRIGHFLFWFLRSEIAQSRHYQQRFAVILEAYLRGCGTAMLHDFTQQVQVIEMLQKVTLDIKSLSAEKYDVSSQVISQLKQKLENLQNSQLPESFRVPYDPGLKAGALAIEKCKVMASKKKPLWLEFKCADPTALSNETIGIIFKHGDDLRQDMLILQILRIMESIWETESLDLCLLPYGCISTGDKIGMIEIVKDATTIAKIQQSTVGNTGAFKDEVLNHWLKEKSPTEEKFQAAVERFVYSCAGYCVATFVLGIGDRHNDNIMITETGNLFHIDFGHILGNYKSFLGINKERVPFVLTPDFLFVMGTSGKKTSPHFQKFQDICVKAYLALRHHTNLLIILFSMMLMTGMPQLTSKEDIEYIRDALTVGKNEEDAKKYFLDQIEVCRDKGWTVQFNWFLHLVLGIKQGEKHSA
Chain of PI3K-alpha (P42336 whole entry, species assumed): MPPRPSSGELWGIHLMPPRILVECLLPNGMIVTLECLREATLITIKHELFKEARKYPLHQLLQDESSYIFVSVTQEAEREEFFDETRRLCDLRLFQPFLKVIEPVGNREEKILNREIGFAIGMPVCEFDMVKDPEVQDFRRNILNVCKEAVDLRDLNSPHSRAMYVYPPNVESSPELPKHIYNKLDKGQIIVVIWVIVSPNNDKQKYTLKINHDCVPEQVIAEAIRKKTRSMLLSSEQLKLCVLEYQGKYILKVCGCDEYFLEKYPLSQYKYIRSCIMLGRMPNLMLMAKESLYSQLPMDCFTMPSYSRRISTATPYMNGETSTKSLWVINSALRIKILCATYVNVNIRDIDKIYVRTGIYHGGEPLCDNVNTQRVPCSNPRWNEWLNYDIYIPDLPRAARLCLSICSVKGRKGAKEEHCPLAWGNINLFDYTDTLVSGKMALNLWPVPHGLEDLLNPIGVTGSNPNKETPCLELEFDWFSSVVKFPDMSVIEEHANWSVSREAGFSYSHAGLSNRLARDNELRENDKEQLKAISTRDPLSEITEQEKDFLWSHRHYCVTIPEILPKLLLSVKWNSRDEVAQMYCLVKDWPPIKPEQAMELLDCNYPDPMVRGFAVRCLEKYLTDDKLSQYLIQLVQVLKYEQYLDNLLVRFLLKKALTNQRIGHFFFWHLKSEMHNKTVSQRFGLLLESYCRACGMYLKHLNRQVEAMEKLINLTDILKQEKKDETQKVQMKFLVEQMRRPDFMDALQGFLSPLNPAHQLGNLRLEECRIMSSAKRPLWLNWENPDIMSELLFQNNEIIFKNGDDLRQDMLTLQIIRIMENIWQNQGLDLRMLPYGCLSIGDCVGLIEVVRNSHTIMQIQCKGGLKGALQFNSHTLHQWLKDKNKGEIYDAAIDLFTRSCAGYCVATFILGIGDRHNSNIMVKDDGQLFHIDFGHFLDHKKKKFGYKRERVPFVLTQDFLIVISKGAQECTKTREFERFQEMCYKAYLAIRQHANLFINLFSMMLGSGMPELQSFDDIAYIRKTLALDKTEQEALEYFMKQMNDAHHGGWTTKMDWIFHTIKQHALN
Chain of PI3K-alpha (P27986 whole entry partner, species assumed): as the sequence (P27986 whole entry partner, species assumed) above

IC50 ([1]; read-out: PI3Kα Avg. IC50) [nM] | IC50 [2] [nM] | IC50 [3] [nM] | IC50 [4] [nM] | IC50 ([5]; PI3Kγ Avg. IC50) [nM] | Compound | IC50 ([1]; PI3Kα Avg. IC50) [nM] | IC50 ([5]; read-out: PI3Kγ Avg. IC50) [nM]
0.5 | 5 | 100 | – | – | COc1ccc2c(c1)c(/C=C1\Oc3ccc(NC(=O)Nc4ccc(C(=O)N5CCN(C)CC5)cc4)cc3C1=O)c(C)n2CCN1CCN(C)CC1 [Compound 618, 1-[(2Z)-2-({5-methoxy-2-methyl-1-[2-(4-methylpiperazin-1-yl)ethyl]-1H-indol-3-yl}methylene)-3-oxo-2,3-dihydro-1-benzofuran-5-yl]-3-{4-[(4-methylpiperazin-1-yl)carbonyl]phenyl}urea] | – | –
0.2 | 2.5 | 38 | – | – | COc1ccc2c(c1)c(/C=C1\Oc3ccc(NC(=O)Nc4ccc(C(=O)N5CCN(C)CC5)cc4)cc3C1=O)c(C)n2CCO [Compound 619, 1-[(2Z)-2-{[1-(2-hydroxyethyl)-5-methoxy-2-methyl-1H-indol-3-yl]methylene}-3-oxo-2,3-dihydro-1-benzofuran-5-yl]-3-{4-[(4-methylpiperazin-1-yl)carbonyl]phenyl}urea] | – | –
0.3 | 2 | 240 | – | – | CCn1c(C)c(/C=C2\Oc3ccc(NC(=O)Nc4ccc(C(=O)N5CCN(C)CC5)cc4)cc3C2=O)c2cc(OC)ccc21 [Compound 620, 1-{(2Z)-2-[(1-ethyl-5-methoxy-2-methyl-1H-indol-3-yl)methylene]-3-oxo-2,3-dihydro-1-benzofuran-5-yl}-3-{4-[(4-methylpiperazin-1-yl)carbonyl]phenyl}urea] | – | –
0.6 | 4.5 | – | 28.5 | 4.65 | CNC(=O)Nc1ccc2c(c1)C(=O)/C(=C/c1c(-c3c(C)nn(C)c3C)[nH]c3ccc(OC)cc13)O2 [Compound 627, 1-[(2Z)-2-{[5-methoxy-2-(1,3,5-trimethyl-1H-pyrazol-4-yl)-1H-indol-3-yl]methylidene}-3-oxo-2,3-dihydro-1-benzofuran-5-yl]-3-methylurea] | – | –
0.33 | 1.45 | 12 | 5 | 3.42 | CCn1c(C)c(/C=C2\Oc3ccc(NC(=O)Nc4ccc(C(=O)N(C)CCN(C)C)cc4)cc3C2=O)c2cc(OC)ccc21 [Compound 639, N-[2-(dimethylamino)ethyl]-4-[({(2Z)-2-[(1-ethyl-5-methoxy-2-methyl-1H-indol-3-yl)methylene]-3-oxo-2,3-dihydro-1-benzofuran-5-yl}carbamoyl)amino]-N-methylbenzamide] | – | –
0.2 | 0.6 | < 1 | 0.7 | 2.35 | COc1cc(F)c2[nH]c(-c3c(C)nn(C)c3C)c(/C=C3\Oc4ccc(NC(=O)Nc5ccc(C(=O)N(C)CCN(C)C)cc5)cc4C3=O)c2c1 [Compound 710, N-[2-(dimethylamino)ethyl]-4-({[(2Z)-2-{[7-fluoro-5-methoxy-2-(1,3,5-trimethyl-1H-pyrazol-4-yl)-1H-indol-3-yl]methylidene}-3-oxo-2,3-dihydro-1-benzofuran-5-yl]carbamoyl}amino)-N-methylbenzamide] | – | –
182 | 70.3 | > 30000 | 132 | 1470 | O=C1/C(=C/c2c(-c3ccccc3)[nH]c3ccccc23)Oc2c1ccc(O)c2O [Example 53, (2Z)-6,7-dihydroxy-2-[(2-phenyl-1H-indol-3-yl)methylene]-1-benzofuran-3(2H)-one] | – | –
111 | 33.5 | 9600 | 98 | 1060 | O=C1/C(=C/c2c(-c3ccc(Cl)cc3)[nH]c3ccccc23)Oc2c1ccc(O)c2O [Example 54, (2Z)-2-{[2-(4-chlorophenyl)-1H-indol-3-yl]methylene}-6,7-dihydroxy-1-benzofuran-3(2H)-one] | – | –
72.7 | 32 | 10000 | 72 | 716 | O=C1/C(=C/c2c(-c3ccc4ccccc4c3)[nH]c3ccccc23)Oc2c1ccc(O)c2O [Example 55, (2Z)-6,7-dihydroxy-2-{[2-(2-naphthyl)-1H-indol-3-yl]methylene}-1-benzofuran-3(2H)-one] | – | –
190 | 108 | > 20000 | 251 | 1950 | O=C1/C(=C/c2c(-c3ccc(F)cc3)[nH]c3ccccc23)Oc2c1ccc(O)c2O [Example 56, (2Z)-2-{[2-(4-fluorophenyl)-1H-indol-3-yl]methylene}-6,7-dihydroxy-1-benzofuran-3(2H)-one] | – | –
– | 5.3 | < 30 | 26 | 13.4 | COc1ccc2[nH]c(-c3ccccc3)c(C=C3Oc4cc(O)cc(O)c4C3=O)c2c1 [Example 70, 4,6-dihydroxy-2-[(5-methoxy-2-phenyl-1H-indol-3-yl)methylene]-1-benzofuran-3(2H)-one] | – | –
2.7 | 5.8 | 2.7 | 8 | 25 | COc1ccc2[nH]c(C)c(C=C3Oc4cc(O)cc(O)c4C3=O)c2c1 [Example 73, 4,6-dihydroxy-2-[(5-methoxy-2-methyl-1H-indol-3-yl)methylene]-1-benzofuran-3(2H)-one] | – | –
– | 6 | < 24 | 72 | 142 | COc1ccc2c(c1)c(C=C1Oc3cc(O)cc(O)c3C1=O)c(C)n2CCCCCl [Example 87, 2-{[1-(4-chlorobutyl)-5-methoxy-2-methyl-1H-indol-3-yl]methylene}-4,6-dihydroxy-1-benzofuran-3(2H)-one] | – | –
23.5 | – | 165 | – | 942 | COc1ccc2c(c1)c(/C=C1\Oc3cc(O)ccc3C1=O)c(-c1c(C)noc1C)n2CCN1CCN(C)CC1 [Example 469, (2Z)-2-({2-(3,5-Dimethylisoxazol-4-yl)-5-methoxy-1-[2-(4-methylpiperazin-1-yl)ethyl]-1H-indol-3-yl}methylene)-6-hydroxy-1-benzofuran-3(2H)-one] | – | –
35.5 | – | 2300 | – | 656 | COc1ccc2c(c1)c(/C=C1\Oc3cc(O)ccc3C1=O)c(C)n2CCN1CCCCCC1 [Example 470, (2Z)-2-{[1-(2-Azepan-1-ylethyl)-5-methoxy-2-methyl-1H-indol-3-yl]methylene}-6-hydroxy-1-benzofuran-3(2H)-one] | – | –

Compound | IC50 ([1]; read-out: PI3Kα Avg. IC50) [nM] | IC50 [2] [nM] | IC50 [3] [nM] | IC50 [4] [nM] | IC50 ([5]; PI3Kγ Avg. IC50) [nM] | IC50 ([1]; PI3Kα Avg. IC50) [nM] | IC50 ([5]; read-out: PI3Kγ Avg. IC50) [nM]
O=C1C(=Cc2c(-c3ccccc3)[nH]c3ccccc23)Oc2cc(O)cc(O)c21 [Example 14, 4,6-dihydroxy-2-[(2-phenyl-1H-indol-3-yl)methylene]-1-benzofuran-3(2H)-one] | – | 381 | 130 | 736 | 2780 | 1030 | –
O=C1/C(=C/c2c[nH]c3ccc(Br)cc23)Oc2cc(O)cc(O)c21 [Example 50, (2Z)-2-[(5-bromo-1H-indol-3-yl)methylene]-4,6-dihydroxy-1-benzofuran-3(2H)-one] | – | 387 | 3700 | 358 | 1620 | 422 | –
COc1ccc2[nH]cc(/C=C3\Oc4cc(O)cc(O)c4C3=O)c2c1 [Example 59, (2Z)-4,6-dihydroxy-2-[(5-methoxy-1H-indol-3-yl)methylene]-1-benzofuran-3(2H)-one] | – | 70 | 265 | 173 | 269 | 30.2 | –
Cc1[nH]c2ccc(Br)cc2c1/C=C1\Oc2cc(O)cc(O)c2C1=O [Example 61, (2Z)-2-[(5-bromo-2-methyl-1H-indol-3-yl)methylene]-4,6-dihydroxy-1-benzofuran-3(2H)-one] | – | 374 | 190 | 567 | 2220 | 179 | –
COc1ccc2c(c1)c(C=C1Oc3cc(O)cc(O)c3C1=O)c(C)n2CCN1CCN(C)CC1 [Example 108, 4,6-dihydroxy-2-({5-methoxy-2-methyl-1-[2-(4-methylpiperazin-1-yl)ethyl]-1H-indol-3-yl}methylene)-1-benzofuran-3(2H)-one] | – | – | < 34 | 7.5 | 474 | 5 | –
COc1ccc2c(c1)c(/C=C1\Oc3cc(O)cc(O)c3C1=O)c(C)n2CCN1CCN(C)CC1 [Example 309, (2Z)-4,6-Dihydroxy-2-({5-methoxy-2-methyl-1-[2-(4-methylpiperazin-1-yl)ethyl]-1H-indol-3-yl}methylene)-1-benzofuran-3(2H)-one] | 2 | – | < 27 | 6.5 | 268 | – | –
(2Z)-2-[(4-Bromo-1-methyl-1H-indol-3-yl)methylene]-4,6-dimethoxybenzofuran-3(2H)-one [Example 408] | 3310 | – | > 20000 | – | – | – | 1940
